According to US8246966B2, “Trypanosome microsome system and uses thereof” (priority 2006, dated 2012):
pIC50: −log10 of the molar value.

How the values were obtained:
bloodstream T. brucei = conditions: del Rayo Camacho et al., 2002; read-out: IC50 of drug used to treat human African trypanosomiasis; cited from earlier work
[1] = system: T. brucei microsomes (TbRM); assay: Post-translational import of VSG-11786 into TbRM with inhibitors (Example 4); format: biochemical, Trypanosoma brucei
Description: FIGS. 7A to 7C. […] VSG-11786 mRNA was translated in rabbit reticulocyte lysate in the absence or presence of T. brucei cytosol for 1 hour at 37° C., and then cycloheximide was added to stop protein synthesis. TbRM (1 equivalent) and MAL3-101 (10 μM), MAL3-51 (10 μM), or an equal volume of DMSO was added to the samples on ice, and the mixture was incubated at 37° C. for 1.5 hours for translocation of VSG-11786 into the microsomes. Reaction mixtures were treated with proteinase K (PK) for one hour on ice. Proteolysis was terminated with PMSF. Proteins were precipitated with ammonium sulfate, pelleted by centrifugation, resuspended in SDS-PAGE sample buffer, and resolved by Tris-Tricine SDS-PAGE. Gel images were obtained with a phosphorimager and analyzed with Quantity-One software. Reaction mixtures for odd numbered lanes contained TbRM, but not proteinase K; even numbered lanes contained TbRM and proteinase K. Brackets denote lanes that were compared to obtain percentage of VSG-11786 import values. FIG. 7B is a graphical representation of data from FIG. 7A. […] In FIG. 7C, the effect of MAL3-101 on T. brucei growth.
FIGS. 8A to 8D. Effects of NFI028 and CAM741 on import of VSG-11786 into T. brucei microsomes. […] VSG-11786 mRNA was translated in rabbit reticulocyte lysate in the presence of T. brucei cytosol for one hour at 37° C., and then protein synthesis was stopped by the addition of cycloheximide. […] Reaction mixtures were treated with proteinase K (PK) on ice for one hour. Proteolysis was terminated with PMSF. Proteins were precipitated with ammonium sulfate, pelleted, resuspended in SDS-PAGE sample buffer, and resolved by Tris-Tricine SDS-PAGE. Images of radiolabeled proteins were obtained with a phosphorimager and quantitated with Quantity-One software. Samples depicted in odd numbered lanes contained TbRM, but were not treated proteinase K. Reaction mixtures shown in even numbered lanes contained TbRM and were treated with proteinase K. Brackets denote lanes that were compared to each other in order to obtain percentage of VSG-11786 import values. FIG. 8B is a graphical representation of data from FIG. 8A.
FIGS. 9A to 9D. Effects of azide, AEE788, and valinomycin on VSG-11786 import into T. brucei microsomes. […] VSG-11786 mRNA was translated in rabbit reticulocyte lysate in the presence of T. brucei cytosol for one hour at 37° C. Cycloheximide was added to stop proteins synthesis. TbRM (1 equivalent) and sodium azide (8 μM), AEE788 (8 μM), an equal volume of microsome buffer (RMB) or DMSO was added to the samples on ice, and the mixtures were incubated at 37 C for 1.5 hours. Reaction mixtures were treated with proteinase K (PK) on ice for one hour. Proteolysis was terminated with PMSF. Proteins were precipitated with ammonium sulfate, pelleted, resuspended in SDS-PAGE sample buffer, and resolved by Tris-Tricine SDS-PAGE. Images of radiolabeled proteins were obtained with a phosphorimager and quantitated with Quantity-One software. Brackets show lanes that were compared to each other in order to obtain percentage of VSG-11786 imported into TbRM. Lanes 1, 3, 5, & 7 were treated with TbRM, but not proteinase K. Lanes 2, 4, 6, & 8 were treated with TbRM and proteinase K. FIG. 9B is a graphical representation of data from FIG. 9A. […] Reaction mixtures depicted in odd lanes contained TbRM, but were not treated with proteinase K; even lanes contained TbRM and were treated with proteinase K. FIG. 9D is a graphical representation of data from panel FIG. 9C.

[2] = system: Bloodstream T. brucei CA427; assay: Bloodstream T. brucei cell culture drug susceptibility (Example 4); format: cell-based, Trypanosoma brucei; conditions: cultured bloodstream T. brucei; read-out: IG50, T. brucei growth
Description: Cell Culture. Bloodstream T. brucei cell culture and drug susceptibility studies were performed as previously described. Bloodstream T. brucei CA427 were cultured in HMI-9 media (Hirumi and Hirumi, 1994, Parasitol Today; 10(2):80-4) to a density of 10^6 cells/ml. Cells were seeded (500 μl of 4×10^4 cells/ml) to a 24-well plate and exposed to MAL3-101, CAM741, and NFI028 at listed concentrations (see figure legends) or an equal volume of DMSO. Cells were incubated at 37° C. and counted after 24 and 48 hours, using a hemocytometer.

N=C(N)c1ccc(OCCCCCOc2ccc(C(=N)N)cc2)cc1 [pentamidine]
pIC50 (bloodstream T. brucei): 9.52

Cc1ccc(C(=O)Nc2ccc(S(=O)(=O)O)c3cc(S(=O)(=O)O)cc(S(=O)(=O)O)c23)cc1NC(=O)c1cccc(NC(=O)Nc2cccc(C(=O)Nc3cc(C(=O)Nc4ccc(S(=O)(=O)O)c5cc(S(=O)(=O)O)cc(S(=O)(=O)O)c45)ccc3C)c2)c1 [suramin]
pIC50 (bloodstream T. brucei): 5.64 to 5.85

CCN1CCN(Cc2ccc(-c3cc4c(N[C@H](C)c5ccccc5)ncnc4[nH]3)cc2)CC1 [AEE788]
inhibition of post-translational import of VSG-11786 into TbRM ([1]; AEE788 8 μM): failed to inhibit

CAM741
VSG-11786 import into TbRM ([1]; CAM741 1 μM, DMSO 74%): 73%
pIC50 [2]: 5.70

CC(C)[C@@H]1NC(=O)[C@H](C)OC(=O)[C@@H](C(C)C)NC(=O)[C@@H](C(C)C)OC(=O)[C@H](C(C)C)NC(=O)[C@H](C)OC(=O)[C@@H](C(C)C)NC(=O)[C@@H](C(C)C)OC(=O)[C@H](C(C)C)NC(=O)[C@H](C)OC(=O)[C@@H](C(C)C)NC(=O)[C@@H](C(C)C)OC1=O [valinomycin]
efficiency of VSG-11786 import into TbRM ([1]; valinomycin 0.5 μM): not affected
